pKi: −log10 of the molar value. Where two headings read alike, the source gives them in different places.
What was measured:
lawn of E. coli = assay type: cell-based; conditions: 1.0 tet/0.78 Cohex and 2.0 tet/1.6 mg Cohex disk pairings, overnight at 37° C.
MgtB Mg transporter = MgtB Mg transporter (Salmonella typhimurium, UniProt P22036); conditions: cited from earlier work
bacterial growth [1] = conditions: cited from earlier work
[2] = molecular target: CorA of Methanococcus jannaschii (Methanocaldococcus jannaschii, UniProt Q58439); conditions: cited from earlier work
[3] = tested on: Francisella tularensis subspecies Novicida; assay type: cell-based
[4] = mouse, in vivo
Francisella philomiragia = assay type: cell-based
bacterial growth [5] = assay type: cell-based
TolC (E. coli) = TolC (E. coli) (Escherichia coli, UniProt P02930); conditions: isothermal titration calorimetry; cited from earlier work
[6] = tested on: S. typhimurium strain in which CorA was the only functional Mg2+ transporter; conditions: cited from earlier work
[7] = molecular target: CorA of Salmonella typhimurium (Salmonella typhimurium, UniProt P0A2R8); conditions: cited from earlier work
Sequence of CorA of Salmonella typhimurium (P0A2R8 whole entry): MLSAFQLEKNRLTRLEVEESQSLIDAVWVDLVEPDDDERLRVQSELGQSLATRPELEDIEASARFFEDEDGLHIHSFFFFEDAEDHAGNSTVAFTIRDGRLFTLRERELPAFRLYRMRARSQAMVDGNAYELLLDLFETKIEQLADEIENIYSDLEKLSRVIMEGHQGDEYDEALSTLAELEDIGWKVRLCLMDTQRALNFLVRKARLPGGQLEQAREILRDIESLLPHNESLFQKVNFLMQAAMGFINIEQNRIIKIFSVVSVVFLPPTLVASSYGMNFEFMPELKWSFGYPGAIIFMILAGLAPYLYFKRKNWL

Sequence of TolC (E. coli) (P02930 23-493): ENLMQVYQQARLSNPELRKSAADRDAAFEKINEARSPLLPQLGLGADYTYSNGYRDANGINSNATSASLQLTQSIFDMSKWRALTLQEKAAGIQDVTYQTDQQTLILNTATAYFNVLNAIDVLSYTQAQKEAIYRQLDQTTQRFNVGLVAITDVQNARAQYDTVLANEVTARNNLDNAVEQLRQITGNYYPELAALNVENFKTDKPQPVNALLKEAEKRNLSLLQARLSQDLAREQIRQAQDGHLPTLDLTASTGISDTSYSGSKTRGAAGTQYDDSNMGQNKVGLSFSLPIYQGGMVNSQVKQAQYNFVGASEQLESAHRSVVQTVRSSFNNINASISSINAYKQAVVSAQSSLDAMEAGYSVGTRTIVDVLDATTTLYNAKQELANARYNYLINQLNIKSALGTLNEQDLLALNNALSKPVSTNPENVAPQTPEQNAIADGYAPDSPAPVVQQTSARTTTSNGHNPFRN
Sequence of MgtB Mg transporter (P22036 whole entry): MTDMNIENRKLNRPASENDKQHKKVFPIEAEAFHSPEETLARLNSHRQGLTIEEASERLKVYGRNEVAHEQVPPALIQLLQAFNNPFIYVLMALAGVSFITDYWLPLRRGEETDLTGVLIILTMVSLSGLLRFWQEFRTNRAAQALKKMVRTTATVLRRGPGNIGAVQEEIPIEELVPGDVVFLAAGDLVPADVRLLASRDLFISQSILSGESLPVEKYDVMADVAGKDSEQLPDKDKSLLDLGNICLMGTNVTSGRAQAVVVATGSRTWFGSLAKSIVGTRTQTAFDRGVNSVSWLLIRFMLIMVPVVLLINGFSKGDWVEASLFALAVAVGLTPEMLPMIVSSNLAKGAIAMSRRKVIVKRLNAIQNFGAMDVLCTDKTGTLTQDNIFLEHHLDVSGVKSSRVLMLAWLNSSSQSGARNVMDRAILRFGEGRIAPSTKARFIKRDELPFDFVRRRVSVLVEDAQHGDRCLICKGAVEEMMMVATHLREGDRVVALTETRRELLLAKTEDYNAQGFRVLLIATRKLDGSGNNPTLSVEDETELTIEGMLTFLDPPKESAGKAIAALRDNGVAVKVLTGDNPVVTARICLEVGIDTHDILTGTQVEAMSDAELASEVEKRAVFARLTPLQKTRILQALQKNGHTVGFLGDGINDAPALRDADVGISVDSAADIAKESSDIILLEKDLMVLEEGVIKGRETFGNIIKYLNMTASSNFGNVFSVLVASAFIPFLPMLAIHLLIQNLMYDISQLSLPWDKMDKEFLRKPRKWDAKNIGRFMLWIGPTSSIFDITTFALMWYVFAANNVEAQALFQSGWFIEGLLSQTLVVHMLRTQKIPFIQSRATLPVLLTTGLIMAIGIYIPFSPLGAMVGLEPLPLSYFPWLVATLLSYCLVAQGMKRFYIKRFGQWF
Sequence of CorA of Methanococcus jannaschii (Q58439 whole entry): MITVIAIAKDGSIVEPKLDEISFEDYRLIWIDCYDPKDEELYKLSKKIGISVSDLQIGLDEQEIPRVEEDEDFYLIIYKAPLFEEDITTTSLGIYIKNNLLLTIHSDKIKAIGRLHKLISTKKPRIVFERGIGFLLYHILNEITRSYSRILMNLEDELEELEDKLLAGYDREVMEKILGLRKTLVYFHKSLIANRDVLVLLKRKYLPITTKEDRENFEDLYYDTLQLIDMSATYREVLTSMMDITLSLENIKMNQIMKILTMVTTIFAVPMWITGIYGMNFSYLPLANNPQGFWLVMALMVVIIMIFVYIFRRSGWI

hexamminecobalt (III) chloride [Cohex]
zone of inhibition, interaction with tetracycline (lawn of E. coli): synergistic effect | inhibition of alternate pathways of Mg2+ transport (MgtB Mg transporter): does not inhibit | effect on bacterial growth (bacterial growth [1]): prevents bacterial growth at micromolar concentrations | inhibition of 63Ni2+ uptake [2]: inhibited | CC50 (BHK cells): ~3200 µM | kind of inhibition of the bacterial growth [3]: bacteriostatic rather than bacteriocidal | toxicity to mice [4]: not to be highly toxic | kind of inhibition of the bacterial growth (Francisella philomiragia): bacteriostatic rather than bacteriocidal | effect of the presence of Cohex on potency of the antibiotic drugs (bacterial growth [5]): increased the potency of the drugs up to about an order of magnitude | effect on bacterial growth (bacterial growth [5]): no effect on bacterial growth | Cohex ions bound per trimeric TolC (TolC (E. coli)): ~1 | inhibition of growth [6]: inhibited the growth | inhibition of 63Ni2+ uptake [7]: inhibited | pKi ([7]; corresponding to the IC50, species not given): 6.30
